Here are results for two compounds from publication PMC8414802, “Hair Cell Generation in Cochlear Culture Models Mediated by Novel γ-Secretase Inhibitors” (Frontiers in Cell and Developmental Biology, 2021).

The subject of assay [1] is Myo7a+ hair cells in rat cochlear organoids. Briefly: Rat cochlear organoids, hair cell differentiation. Format: cell-based. As to conditions: for Total hair cells per organoid prior to normalization: end of differentiation, GSI 5 μM. The procedure:
On day 0, the cochlear sensory epithelium was dissected and the OC was separated from the modiolus and stria vascularis, as described above, from either Wistar rat pups (P2), Lgr5-GFP mice (P0–P2) or Atoh1-GFP mice (P0–P2). To separate the sensory epithelial layer from underlying mesenchyme and neurons, the OC was placed in a 100 μl drop of Matrisperse Cell Recovery Solution (Corning) for 1 h at RT, then delaminated with the aid of forceps. Gentle enzymatic dissociation of hair cells and supporting cells followed with 100 μl drop of TrypLE (Gibco), 20 min at 37°C, then mechanical trituration in DMEM/F12. The cell suspension was centrifuged for 5 min at 500 g at 4°C and resuspended in DMEM/F12 medium supplemented with B27 and N2 (Invitrogen), EGF (50 ng/ml), bFGF (50 ng/ml), IGF (25 ng/ml), CHIR99021 (GSK-3β inhibitor, 3 μM, Merck), valproic acid (HDAC inhibitor, 1 mM, Sigma), 2-phospho-L-ascorbic acid (280 μM, Stemcell Technologies) and 0.01% ampicillin (Sigma). Cells were plated at 2,000 cells per well on 96 wells plate (Corning Costar; ultra-low attachment, round-bottom) to allow aggregation at 37°C. On day 1, Matrigel (GF-depleted, Corning; 2% stock) was added to a final concentration of 0.18 mg/ml. On day 3, cells were transferred to 24 wells plate (ultra-low attachment; Corning Costar), pooling the organoid aggregates from 4 to 5 wells (96 well-plate) to one 24-well, culturing at 37°C and exchanging half medium and Matrigel every other day, On day 10, organoids were differentiated by replacing medium with DMEM/F12 supplemented with B27, N2, CHIR99021 (3 μM), and Notch inhibitors CPD3 (5 μM) or LY411575 (5 μM), and culture was continued as above for another 10 days.
For staining and imaging, organoids were allowed to adhere ON onto transwell-permeable support membranes (Corning) in 12-well plates coated with 100% Matrigel. […] Compiled Z-projections were processed (FIJI, ver2.0) and hair cells quantified on individual planes with manual cell counter plugin, by evaluation of cytosolic expression and nuclear exclusion of Myo7a. […]

In assay [2] the test system is Notch-dependent expression of ATOH1 in LS174T cells. Briefly: ATOH1 expression induction in LS174T cell line by GSIs (RT-PCR). It counts as cell-based, human. As to conditions: GSI treatment 72 h, fold-change vs 0.05% DMSO, read-out: IC50 for ATOH1 expression upregulation. On the procedure:
The human colon cancer cell line LS174T (CL-188; ATCC) was cultured without antibiotics in 1% FBS/Eagle’s Minimum Essential Medium (MEM; Thermo Fisher) ([Asakura et al., 2018]). […]
Cells or tissue were lysed using RLT Lysis Buffer (Qiagen) and high purity RNA was prepared on the MagNA Pure instrument using MagNA Pure 96 Cellular RNA LV Kit (Roche). Reagents from Thermo Fisher were used for cDNA synthesis by reverse transcription using random hexamers. Resulting cDNA was RNAse H treated and amplified by TaqMan GEX mastermix and PCR primers and probes for human ATOH1 (Hs00944192_s1) and TBP (Hs00427620_m1), mouse Tbp (Mm00446971_m1), Atoh1 (Mm00476035_s1), Hes5 (Mm00439311_g1), Pouf4s (Mm04213795_s1), and Myo7a (Mm01274015_m1) on the Applied Biosystems QuantStudio 7 Flex Real-Time PCR System. Normalized to Tbp, relative gene expression fold-change was quantified and compared between experimental and control conditions by ΔΔCt calculation.
Statistical analysis was performed with GraphPad Prism software (Prism9; GraphPad Software Inc., San Diego, CA, United States). For explant cultures, when the number of explants/replicates was not sufficient to test for Gaussian distribution normal distribution of the data was assumed based on previous experiments ([Perny et al., 2017]; [Erni et al., 2019]). Alternatively, the distribution of the datasets was tested by D’Agostino and Pearson normality test. Unpaired t-tests were used to compare parametric data sets of two groups. Welch’s correction was applied if variances were not equal. For non-parametric data, the Mann–Whitney test was adopted. One-way ANOVA was used to determine the difference in means among multiple groups and multiple comparison correction was tested. Graphs indicate the single data point, the mean values ± standard deviation. IC50s were calculated by non-linear regression of data normalized by percent change from controls to compare multiple experiments. Differences in IC50s from Best fit data were compared by Least Squares (F-test; Extra sum of squares; alpha = 0.05).
To measure the relative potency between different GSIs, a pharmacological assay was initially used to identify the dose ranges effective to induce ATOH1 expression. The cell line LS174T, a human colorectal adenocarcinoma, was used to evaluate Notch-dependent expression of ATOH1 ([Kazanjian et al., 2010]). Two compounds from Eli Lilly, designated LY3056480 (CPD3) and LY3056359 (CPD8) (Figures 1A,B) were compared with the commercially available GSIs LY411575 and DAPT. […] The intermediate potency of CPD3 and 8 was likely to be adequate to achieve levels above the IC50 after dilution into perilymph in the inner ear.

Where two headings read alike, the source gives them in different places.

In general, IC50 refers to the point on the concentration scale where inhibition reaches its midpoint. Take `COc1ccc2c(c1)N1CCC(C)(C)C1=CC(=O)[C@H]2NC(=O)[C@H](C)NC(=O)CCC(F)(F)F` [CPD3]: in assay [1] (diff D20 vs exp D10, p < 0.05), the “Hair cell numbers during differentiation” value is given as “significantly increased”. In assay [1], the “Total hair cells per organoid prior to normalization” value stood at 22.8 ± 18.0. The IC50 in assay [2] (Homo sapiens) came to 17.3 nM.
Take `C[C@H](NC(=O)[C@@H](O)c1cc(F)cc(F)c1)C(=O)N[C@@H]1C(=O)N(C)c2ccccc2-c2ccccc21` [LY411575]: in assay [1], the “Total hair cells per organoid prior to normalization” value came out at 17.17 ± 20.9. Further, in assay [2], the IC50 was found to be 0.4 nM.
